Here are results for one sequence from US4745101A, “Novel peptide having dentinal fluid transport-stimulating activity” (Teikoku Hormone Mfg. Co., Ltd., priority 1985, dated 1988).

A short description of this data set: Solubility. The data set is classed as physicochemical. From the text:
Soluble in water and physiological saline. Insoluble in acetone.

Where no end group is shown, it is not given here.

Take “GVIAWELQHNQPGRKDSTAG [Peptide of the invention]”: the Solubility result by setting is: (in acetone) “Insoluble”; (in physiological saline) “Soluble”; (in water) “Soluble”.
